Results from PMC7179205, “An Improved Synthesis of Key Intermediate to the Formation of Selected Indolin-2-Ones Derivatives Incorporating Ultrasound and Deep Eutectic Solvent (DES) Blend of Techniques, for Some Biological Activities and Molecular Docking Studies” (Molecules, 2020).
Entries after “also recorded” stand apart in the source; their conditions may differ. Like-named read-outs stand apart in the source and are kept apart here.

Experiments:
Rat Paw Edema = assay: carrageenan-induced hind paw edema method (anti-inflammatory activity); type: in vivo, Wistar albino rats; conditions: for inhibition in vivo at 10 mg/kg: Rattus norvegicus, po; for inhibition in vivo at 10 mg/kg / anti-inflammatory activity (in words) / % Age Inhibition of Rat Paw Edema, 4 H: oral dose 10 mg/kg; for inhibition in vivo at 10 mg/kg / % Age Inhibition of Rat Paw Edema, 4 H: mean ± SEM; for anti-inflammatory activity (in words): compared with standard indomethacin; for Potency (anti-inflammatory): relative to indomethacin = 1.00
Protocol: The anti-inflammatory activity of the synthesized compounds (4a–n) was evaluated by the carrageenan-induced paw edema method. An oral dose of 10 mg/kg was used for compounds and compared with the standard. Anti-inflammatory activity was accessed through percentage inhibition after 2 and 4 h (Table 1).
Compounds produced were assessed for their anti-inflammatory activity using the carrageenan-induced hind paw edema method. The anti-inflammatory activity was carried out using Wistar albino rats of either sex (150–220 g) using a Digital Plethysmometer (Model No. 7140, UGO BASILE). The edema was induced by using 1% carrageenan solution. Indomethacin was used as a standard drug. The anti-inflammatory activity of the standard drug and tested compounds was determined at a dose of 10 mg/kg body weight. The animals were divided into groups containing six animals each and the initial paw volume of each rat was noted by the NaCl displacement method. One group was kept as control, one as standard, and the rest of the groups of compounds were to be tested. To the control group, 1% CMC solution was administered p.o. To the standard group, the standard drug was administered orally. To the test group, tested compounds were administered orally. After 60 min of the 1% CMC solution/standard drug/test compound administration, 0.1 ml of 1% (w/v) carrageenan was injected in the plantar region of the hind limb (right) of all the rats in each group including the control group. The paw volume was again measured after the time interval of 2 and 4 h. Using the following formula, inflammation was calculated as percentage inhibition for the test and reference compounds
(Final foot volume of control—final foot volume of std./test) × 100 / final foot volume of control)

[1] = tested on: acetic acid-induced writhing; assay: acetic acid-induced writhing method (analgesic activity); type: in vivo, Swiss albino mice; conditions: for inhibition in vivo at 10 mg/kg: Mus musculus, read-out: % Analgesic Activity; for Potency (analgesic): relative to indomethacin = 1.00, 10 mg/kg; for Mean with ± SEM: writhes counted for 15 min; for analgesic activity (in words): compared with standard indomethacin
Protocol: All the tested compounds and standard drugs are evaluated at 10 mg/kg oral dose.
The analgesic activity of the tested compounds was carried out by acetic acid-induced writhing method as given in the literature using Swiss albino mice of either sex (25–35 g). The writh were induced in the albino mice using an intraperitoneal injection of 1% acetic acid solution. The standard drug indomethacin and test compounds were evaluated at a concentration of 10 mg/kg of the body weight. The animals were divided into groups and each group consisted of six animals. One group was kept as control, one as standard, and other as test groups. To the control group, 0.1% CMC solution was administered p.o; to the standard group, the standard drug was administered orally, and to the test group, test compounds were administered orally. After 60 min of the 0.1% CMC solution/standard drug/tested compound administration, 0.1 ml of 1% (v/v) acetic acid solution in distilled water was injected intraperitoneally in all the mice in each group including the control group. The writhing (a contraction of the abdomen, turning of trunk, and extension of hind limbs) was counted after 5 min of acetic acid administration and were counted for a period of 15 min. The percentage of analgesic activity was calculated using the following formula.
(Mean wriths of control—mean wriths of std./test) / mean wriths of control) × 100

[2] = 2 h, 2 h, read-out: % Age Inhibition of Rat Paw Edema, 2 H
[3] = 4 h, 4 h, read-out: % Age Inhibition of Rat Paw Edema, 4 H

Compound | melting point | inhibition in vivo at 10 mg/kg (Rat Paw Edema; [2]) | inhibition in vivo at 10 mg/kg (Rat Paw Edema; [3]) | anti-inflammatory activity (in words) (Rat Paw Edema) | Potency (anti-inflammatory) (Rat Paw Edema; 10 mg/kg) | inhibition in vivo at 10 mg/kg ([1]; oral dose 10 mg/kg, mean ± SEM) | Potency (analgesic) [1] | Mean with ± SEM ([1]; oral dose 10 mg/kg) | % Age Inhibition of Rat Paw Edema, 4 H (Rat Paw Edema; 4 h, 10 mg/kg) | anti-inflammatory activity (in words) (Rat Paw Edema; 10 mg/kg) | inhibition in vivo at 10 mg/kg ([1]; po) | analgesic activity (in words) ([1]; oral dose 10 mg/kg)
O=C1C(=NNc2nc(-c3cc4ccccc4oc3=O)cs2)c2ccccc2N1CNc1ccc([N+](=O)[O-])cc1[N+](=O)[O-] [Compound 4g, 1-[(2,4-Dinitro-phenylamino)-methyl]-3-{[4-(2-oxo-2H-chromen-3-yl)-thiazol-2-yl]-hydrazono}-1,3-dihydro-indol-2-one] | 247 to 249 °C | 53.57 ± 0.16% | 77.9% |  | 0.94 |  | 0.51 | 20.09 ± 0.3561 | 77.94 ± 0.184 % | good anti-inflammatory activity; also recorded: significant anti-inflammatory activity | 38 ± 1% | 
O=C1C(=NNc2nc(-c3cc4ccccc4oc3=O)cs2)c2ccccc2N1CNn1cnnc1 [Compound 4h, 3-{[4-(2-Oxo-2H-chromen-3-yl)-thiazol-2-yl]-hydrazono}-1-([1,2,4]triazol-4-ylaminomethyl)-1,3-dihydro-indol-2-one] | 236 to 238 °C | 35.39 ± 0.273% | 64.69 ± 0.245% |  | 0.78 | 26.5 ± 0.317% | 0.35 | 23.83 ± 0.3073 |  |  |  | steep decrease in analgesic activity
O=C1C(=NNc2nc(-c3cc4ccccc4oc3=O)cs2)c2ccccc2N1CNc1ccc([N+](=O)[O-])cc1 [Compound 4l, 1-[(4-Nitro-phenylamino)-methyl]-3-{[4-(2-oxo-2H-chromen-3-yl)-thiazol-2-yl]-hydrazono}-1,3-dihydro-indol-2-one] | 241 to 243 °C | 54.76 ± 0.228% | 80.9% |  | 0.98 | 44.98 ± 0.336% | 0.61 | 17.83 ± 0.3079 | 80.94 ± 0.149 % | good anti-inflammatory activity; also recorded: highest anti-inflammatory activity |  | 
Cc1ccc(NCN2C(=O)C(=NNc3nc(-c4cc5ccccc5oc4=O)cs3)c3ccccc32)cc1 [Compound 4m, 3-{[4-(2-Oxo-2H-chromen-3-yl)-thiazol-2-yl]-hydrazono}-1-(p-tolylamino-methyl)-1,3-dihydro-indol-2-one] | 244 to 246 °C | 53.27 ± 0.183% | 78.4% |  | 0.95 | 32.6 ± 0.845% | 0.44 | 21.83 ± 0.2051 | 78.42 ±0.183 % | good anti-inflammatory activity; also recorded: significant anti-inflammatory activity; also recorded: better anti-inflammatory activity |  | less analgesic activity

More lines, main results first:

melting point | Compound | inhibition in vivo at 10 mg/kg (Rat Paw Edema; [2]) | inhibition in vivo at 10 mg/kg (Rat Paw Edema; [3]) | anti-inflammatory activity (in words) (Rat Paw Edema) | Potency (anti-inflammatory) (Rat Paw Edema; 10 mg/kg) | inhibition in vivo at 10 mg/kg ([1]; oral dose 10 mg/kg, mean ± SEM) | Potency (analgesic) [1] | Mean with ± SEM ([1]; oral dose 10 mg/kg) | % Age Inhibition of Rat Paw Edema, 4 H (Rat Paw Edema; 4 h, 10 mg/kg) | anti-inflammatory activity (in words) (Rat Paw Edema; 10 mg/kg) | inhibition in vivo at 10 mg/kg ([1]; po) | analgesic activity (in words) ([1]; oral dose 10 mg/kg)
245 to 247 °C | O=C1C(=NNc2nc(-c3cc4ccccc4oc3=O)cs2)c2ccccc2N1CNc1ccccc1 [Compound 4a, 3-{[4-(2-Oxo-2H-chromen-3-yl)-thiazol-2-yl]-hydrazono}-1-phenylaminomethyl-1,3-dihydro-indol-2-one] | 38.29 ± 0.016% | 5.57 ± 0.041% | negligible anti-inflammatory activity | 0.06 | 47.5 ± 0.707% | 0.64 | 17.00 ± 0.2582 |  |  |  | 
242 to 244 °C | O=C1C(=NNc2nc(-c3cc4ccccc4oc3=O)cs2)c2ccccc2N1CNc1ccc(F)cc1 [Compound 4b, 1-[(4-Fluoro-phenylamino)-methyl]-3-{[4-(2-oxo-2H-chromen-3-yl)-thiazol-2-yl]-hydrazono}-1,3-dihydro-indol-2-one] | 59.3 ± 0.73% | 45.81 ± 0.069% |  | 0.55 | 25.9 ± 0.58% | 0.35 | 24.00 ± 0.3651 |  |  |  | 
241 to 243 °C | O=C1C(=NNc2nc(-c3cc4ccccc4oc3=O)cs2)c2ccccc2N1CNc1ccc(Br)cc1 [Compound 4d, 1-[(4-Bromo-phenylamino)-methyl]-3-{[4-(2-oxo-2H-chromen-3-yl)-thiazol-2-yl]-hydrazono}-1,3-dihydro-indol-2-one] | 51.92 ± 0.337% | 6.98 ± 0.315% | negligible anti-inflammatory activity | 0.08 | 42.9 ± 0.71% | 0.58 | 18.50 ± 0.4282 |  |  |  | 
244 to 246 °C | O=C1C(=NNc2nc(-c3cc4ccccc4oc3=O)cs2)c2ccccc2N1CNc1ccccc1[N+](=O)[O-] [Compound 4e, 1-[(2-Nitro-phenylamino)-methyl]-3-{[4-(2-oxo-2H-chromen-3-yl)-thiazol-2-yl]-hydrazono}-1,3-dihydro-indol-2-one] | 62.24 ± 0.08% | 48.6 ± 0.09% |  | 0.59 | 47.9 ± 1% | 0.65 | 16.88 ± 0.222 |  |  |  | 
237 to 239 °C | O=C1C(=NNc2nc(-c3cc4ccccc4oc3=O)cs2)c2ccccc2N1CNc1ccncc1 [Compound 4j, 3-{[4-(2-Oxo-2H-chromen-3-yl)-thiazol-2-yl]-hydrazono}-1-(pyridine-4-ylaminomethyl)-1,3-dihydro-indol-2-one] | 53.81 ± 0.12% | 77.9% |  | 0.94 | 47.14 ± 0.402% | 0.64 | 17.13 ± 0.539 |  | good anti-inflammatory activity; also recorded: significant anti-inflammatory activity |  | 
231 to 233 °C | O=C1C(=NNc2nc(-c3cc4ccccc4oc3=O)cs2)c2ccccc2N1CNc1cccnc1 [Compound 4k, 3-{[4-(2-Oxo-2H-chromen-3-yl)-thiazol-2-yl]-hydrazono}-1-(pyridine-3-ylaminomethyl)-1,3-dihydro-indol-2-one] | 38.09 ± 0.214% | 70.8% | significant anti-inflammatory activity | 0.86 | 7.96 ± 0.432% | 0.10 | 29.83 ± 0.3073 | 70.75 ± 0.165% |  |  | least analgesic activity
